Experiment [1] concerns the target T1, histamine H4 receptor (Homo sapiens, UniProt Q9H3N8).
T1 construct: expressed in transfected cells; host or cells: HEK-293 cells, transient transfection with pCINeo vector; membranes
Nature of the experiment: 3H-histamine competition binding assay, membranes of transfected HEK-293 cells. Particulars: displacement of [3H]-histamine, 25° C., 1 h; read-out: Potency in Competition Binding Assay. The protocol: In this assay, membranes were prepared from HEK-293 cells transiently transfected with the pCINeo expression vector harboring the histamine H4 receptor by homogenization of the cells on ice in TE buffer (50 mM Tris-HCl buffer, pH 7.4, containing 5 mM EDTA), 1 mM benzamidine, 2 μg/ml aprotinin, 1 μg/ml leupeptin, and 1 μg/ml pepstatin. The homogenate was centrifuged at 40,000 g for 20 minutes at 4° C. This step was repeated, and the resulting pellet was resuspended in TE buffer. Aliquots were frozen at −70° C. until needed. On the day of assay, membranes were thawed and diluted with TE buffer. Competition radioligand binding assays were performed with increasing concentrations of test compound in the presence of [^3H]-histamine incubated at 25° C. for 1 h in a total volume of 0.5 ml of 50 mM Tris, 5 mM EDTA, pH 7.4. All binding reactions were terminated by filtration under vacuum onto polyethylenimine (0.3%) presoaked Unifilters (PerkinElmer Life Sciences) or Whatman GF/B filters (Whatman, Clifton, N.J.) followed by three brief washes with 4 ml of ice-cold TE buffer. Bound radiolabel was determined by liquid scintillation counting. For all of the radioligand competition binding assays, IC50 values and Hill slopes were determined by Hill transformation of the data and Ki values were determined by the Cheng-Prusoff equation.
(Displacement assays read how much labelled ligand stays bound in the presence of the test substance.)

Experiment [2] deals with T1, histamine H4 receptor. Kind of experiment: FLIPR Ca2+ assay in HEK-293 cells stably expressing histamine H4 receptor and Gαqi5. Conditions: Kb for antagonists and inverse agonists, EC50 for partial agonists; block of histamine-induced Ca2+ increase. The format is cell-based. The text has this:
Histamine H4 receptors from mammalian species have been cloned. Methods to clone, express, and assess the potency and functional activity of such cloned genes are well known to those skilled in the art of molecular biology. […] Before testing, cells are loaded with a Ca^+2 sensitive fluorescent dye, in this case Fluo-4. In the case of partial agonist or agonist ligands, addition of compound to the cells leads to the increase in intracellular Ca^+2 which is detected by FLIPR (Fluorescence Imaging Plate Reader; Molecular Devices, Sunnyvale, Calif.) technology. […] The fluorescence intensities measured before addition of the test compound are subtracted from the fluorescence intensities at later time points. Peak response values determined at each concentration of ligand are expressed as a percentage of the response obtained with the full agonist histamine. Concentration versus response data are analyzed to obtain compound potency as Kb values for antagonists and inverse agonists and as EC50 values for partial agonists.

The next experiment deals with neuropathic pain. Nature of the experiment: Bennett model: chronic constriction injury of sciatic nerve, mechanical stimulus. The format is in vivo, rat. The text has this: To prepare animals for the model, an incision of about 1.5 cm was made about 0.5 cm below the rat pelvis. The biceps femoris and the gluteous superficialis (right side) were separated and the sciatic nerve exposed, isolated, and four loose ligatures (5-0 chromic [NT]) with 1 mm spacing were placed around it. The rats were allowed to recover and then placed in a cage with soft bedding for 10 days before assessment of pain response to mechanical stimulus by the method described above for the Chung model.

The test system of the next experiment is thermal hyperalgesia. Kind of experiment: Complete Freund's adjuvant-induced thermal hyperalgesia. The experiment is classed as in vivo, rat. Particulars: 30 minutes before testing, 48 hours after CFA, thermal stimulus. The protocol: To assess the effectiveness of representative compounds of the invention against hyperalgesia, animals were tested in an acute model of adjuvant-induced thermal hyperalgesia (see for example, Honore, et al. Behavioural Brain Research 167 (2006) 355-364; Carroll, et al. US Patent application US 2006/0025614A 1). To prepare animals for the model, a solution of Complete Freund's adjuvant (150 microliters of a 50% aqueous solution, Sigma Chemical Company, St. Louis, Mo.) was injected into the plantar surface of test paw of the animal (rat). Rats so injected develop a hyperalgesia to thermal stimulation which is assessed 48 hours after injection of the Complete Freund's adjuvant using a commercially available paw thermal stimulator (UARDG, Dept. of Anesthesiology, Univ. California at San Diego, La Jolla, Calif.). For testing, rats were placed individually in a so-called ‘hot box’ (i.e. Plexiglass cubicles mounted on a glass surface) maintained at 30° C., and allowed a 30 minute habituation period. A thermal stimulus, in the form of radiant heat emitted from a focused projection bulb, was then applied to the plantar surface of each hind paw. The stimulus current was maintained (e.g. at 4.5 Amp) and the time of exposure set to limit the extent of possible tissue damage (e.g. maximum of 20 seconds exposure to thermal heating from the projection bulb). The time (in seconds) for the withdrawal of the paw that was injected with the Complete Freund's adjuvant (CFA) and subjected to the thermal stimulus was recorded, and this was compared to the time (in seconds) for withdrawal of the uninjected paw subjected to the same thermal stimulus. […] To test the effect of a compound on the hyperalgesia, the test compound is dissolved in a vehicle (e.g. water or saline) and administered by i.p. (intraperitoneal) injection 30 minutes before the testing of the animal's response to the thermal stimulus to the paws. The antihyperalgesic activity of the compound in blocking the pain is shown by an increase in the time to withdraw the CFA-injected paw subjected to thermal stimulus. Experiments are done with single-dose and escalating-dosages of the test compound, and dose response curves constructed to determine ED50 values.

Experimental findings from patent US7985745B2, “Method for pain treatment” (Abbott Laboratories, priority 2006, dated 2011) are described below.

The structures appear in SMILES notation.

T1 sequence (Q9H3N8 whole entry, species assumed): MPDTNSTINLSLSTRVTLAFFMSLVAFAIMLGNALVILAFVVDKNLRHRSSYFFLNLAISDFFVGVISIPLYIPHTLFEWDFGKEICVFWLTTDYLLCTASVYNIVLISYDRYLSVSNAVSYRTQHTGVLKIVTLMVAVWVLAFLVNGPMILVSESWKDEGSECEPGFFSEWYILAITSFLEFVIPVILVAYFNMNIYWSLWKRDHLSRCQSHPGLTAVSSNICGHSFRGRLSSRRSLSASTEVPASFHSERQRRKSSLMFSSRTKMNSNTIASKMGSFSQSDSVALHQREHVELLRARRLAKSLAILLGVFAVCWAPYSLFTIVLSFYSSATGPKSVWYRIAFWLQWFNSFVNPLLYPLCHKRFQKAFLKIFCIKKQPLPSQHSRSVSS

On to `CNC1CN(c2nc(N)nc3c2CCCc2ccccc2-3)C1` [Example 6, 4-(3-Methylamino-azetidin-1-yl)-6,7-dihydro-5H-benzo[6,7]cyclohepta[1,2-d]pyrimidin-2-ylamine], for which the Ki at histamine H4 receptor [1] stood at 11 nM. Moreover, the “Potency in the FLIPR assay” value on histamine H4 receptor [2] was 9 nM.
In the case of `CN1CCN(C(=O)c2cc3cc(Cl)ccc3[nH]2)CC1` [Example 3, reference compound], the MPE stood at 32% with neuropathic pain (250 micromole/kg i.p.), 73% in the experiment with neuropathic pain (500 micromole/kg i.p.), 27% with thermal hyperalgesia (30 micromole/kg i.p.) and 81% with thermal hyperalgesia (300 micromole/kg i.p.).
`CN1CCN(c2cc(-c3ccc(C#N)cc3)nc(N)n2)CC1.O=C(O)/C=C\C(=O)O` [Example 1, 4-(2-Amino-6-(4-methylpiperazin-1-yl)pyrimidin-4-yl)benzonitrile, maleate]: the MPE stood at 18% in the experiment with neuropathic pain (100 micromole/kg i.p.), 63% in the experiment with neuropathic pain (300 micromole/kg i.p.), 62% with thermal hyperalgesia (30 micromole/kg i.p.) and 88% in the experiment with thermal hyperalgesia (100 micromole/kg i.p.). For the same compound, the Ki on histamine H4 receptor [1] amounted to 35 nM. The “Potency in the FLIPR assay” value on histamine H4 receptor [2] is 58 nM.
